From patent US20120010075A1 (priority 2009, published 2012)

tested on: Leptosphaeria nodorum (LEPTNO); experiment: In vitro fungitoxicity of hydrazones with and without copper towards Leptosphaeria nodorum (Example 26); assay type: cell-based; conditions: Parastagonospora nodorum, 72 h, copper-minus medium; test compound Concn. 0.05 μg/mL; 72 h at 25° C.; read-out: LEPTNO % Inhn. Minus Copper Observed

| SMILES | inhibition of growth at 0.05 µg/mL [%] |
| --- | --- |
| Cc1ccc(C(=O)N/N=C/c2cc(C(F)(F)F)cc(C(F)(F)F)c2O)c(O)c1 [Example 342] | 9.1 |
| Cc1cccc(C(=O)N/N=C/c2cccc(C(F)(F)F)c2O)c1 [Example 343] | 2.8 |
| Cc1ccc(C(=O)N/N=C/c2cccc(C(F)(F)F)c2O)cc1 [Example 344] | 31.5 |
| O=C(N/N=C/c1cccc(C(F)(F)F)c1O)c1cccc(F)c1 [Example 345] | 18.8 |
| O=C(N/N=C/c1cccc(C(F)(F)F)c1O)c1ccc(F)cc1 [Example 346] | 30 |
| O=C(N/N=C/c1cccc(C(F)(F)F)c1O)c1cccc(Cl)c1 [Example 347] | 13.8 |
| O=C(N/N=C/c1cccc(C(F)(F)F)c1O)c1cccc([N+](=O)[O-])c1 [Example 349] | 17.4 |
| O=C(N/N=C/c1cccc(C(F)(F)F)c1O)c1ccc([N+](=O)[O-])cc1 [Example 350] | 11.3 |
| Cc1ccc(C(=O)N/N=C/c2cccc(C(F)(F)F)c2O)c(O)c1 [Example 352] | 8.8 |
| O=C(N/N=C/c1cccc(C(F)(F)F)c1O)c1ccccc1C(F)(F)F [Example 353] | 0 |
| Cc1cccc(C(=O)N/N=C/c2ccc(Cl)c(Cl)c2O)c1 [Example 354] | 18.4 |
| Cc1ccc(C(=O)N/N=C/c2ccc(Cl)c(Cl)c2O)cc1 [Example 355] | 19.6 |
| O=C(N/N=C/c1ccc(Cl)c(Cl)c1O)c1cccc(F)c1 [Example 356] | 18.6 |
| O=C(N/N=C/c1ccc(Cl)c(Cl)c1O)c1ccc(F)cc1 [Example 357] | 56.7 |
| O=C(N/N=C/c1ccc(Cl)c(Cl)c1O)c1cccc(Cl)c1 [Example 358] | 12.7 |
| O=C(N/N=C/c1ccc(Cl)c(Cl)c1O)c1cccc([N+](=O)[O-])c1 [Example 360] | 17.6 |
| O=C(N/N=C/c1ccc(Cl)c(Cl)c1O)c1ccc([N+](=O)[O-])cc1 [Example 361] | 3.3 |

same assay, conditions: copper-plus medium (CuCl2 10 μM); test compound Concn. 0.05 μg/mL; 72 h at 25° C.

| SMILES | LEPTNO % Inhn. Plus Copper Observed [%] |
| --- | --- |
| Cc1ccc(C(=O)N/N=C/c2cc(C(F)(F)F)cc(C(F)(F)F)c2O)c(O)c1 [Example 342] | 98.3 |
| Cc1cccc(C(=O)N/N=C/c2cccc(C(F)(F)F)c2O)c1 [Example 343] | 95.4 |
| Cc1ccc(C(=O)N/N=C/c2cccc(C(F)(F)F)c2O)cc1 [Example 344] | 91.8 |
| O=C(N/N=C/c1cccc(C(F)(F)F)c1O)c1cccc(F)c1 [Example 345] | 97.9 |
| O=C(N/N=C/c1cccc(C(F)(F)F)c1O)c1ccc(F)cc1 [Example 346] | 96.7 |
| O=C(N/N=C/c1cccc(C(F)(F)F)c1O)c1cccc(Cl)c1 [Example 347] | 98.4 |
| O=C(N/N=C/c1cccc(C(F)(F)F)c1O)c1cccc([N+](=O)[O-])c1 [Example 349] | 96.9 |
| O=C(N/N=C/c1cccc(C(F)(F)F)c1O)c1ccc([N+](=O)[O-])cc1 [Example 350] | 94.9 |
| Cc1ccc(C(=O)N/N=C/c2cccc(C(F)(F)F)c2O)c(O)c1 [Example 352] | 98.4 |
| O=C(N/N=C/c1cccc(C(F)(F)F)c1O)c1ccccc1C(F)(F)F [Example 353] | 94.8 |
| Cc1cccc(C(=O)N/N=C/c2ccc(Cl)c(Cl)c2O)c1 [Example 354] | 95.4 |
| Cc1ccc(C(=O)N/N=C/c2ccc(Cl)c(Cl)c2O)cc1 [Example 355] | 89.8 |
| O=C(N/N=C/c1ccc(Cl)c(Cl)c1O)c1cccc(F)c1 [Example 356] | 98.0 |
| O=C(N/N=C/c1ccc(Cl)c(Cl)c1O)c1ccc(F)cc1 [Example 357] | 97.4 |
| O=C(N/N=C/c1ccc(Cl)c(Cl)c1O)c1cccc(Cl)c1 [Example 358] | 98.3 |
| O=C(N/N=C/c1ccc(Cl)c(Cl)c1O)c1cccc([N+](=O)[O-])c1 [Example 360] | 96.9 |
| O=C(N/N=C/c1ccc(Cl)c(Cl)c1O)c1ccc([N+](=O)[O-])cc1 [Example 361] | 96.4 |

tested on: not given; experiment: not given; conditions: not given

| SMILES | melting point [°C] |
| --- | --- |
| Cc1ccc(C(=O)N/N=C/c2cc(C(F)(F)F)cc(C(F)(F)F)c2O)c(O)c1 [Example 342] | 251 to 254 |
| Cc1cccc(C(=O)N/N=C/c2cccc(C(F)(F)F)c2O)c1 [Example 343] | 188 to 190 |
| Cc1ccc(C(=O)N/N=C/c2cccc(C(F)(F)F)c2O)cc1 [Example 344] | 239 to 241 |
| O=C(N/N=C/c1cccc(C(F)(F)F)c1O)c1cccc(F)c1 [Example 345] | 176 to 180 |
| O=C(N/N=C/c1cccc(C(F)(F)F)c1O)c1ccc(F)cc1 [Example 346] | 187 to 188 |
| O=C(N/N=C/c1cccc(C(F)(F)F)c1O)c1cccc(Cl)c1 [Example 347] | 185 to 187 |
| O=C(N/N=C/c1cccc(C(F)(F)F)c1O)c1cccc([N+](=O)[O-])c1 [Example 349] | 215 to 217 |
| O=C(N/N=C/c1cccc(C(F)(F)F)c1O)c1ccc([N+](=O)[O-])cc1 [Example 350] | 253 to 255 |
| Cc1ccc(C(=O)N/N=C/c2cccc(C(F)(F)F)c2O)c(O)c1 [Example 352] | 248 to 253 |
| O=C(N/N=C/c1cccc(C(F)(F)F)c1O)c1ccccc1C(F)(F)F [Example 353] | 169 to 171 |
| Cc1cccc(C(=O)N/N=C/c2ccc(Cl)c(Cl)c2O)c1 [Example 354] | 212 to 214 |
| Cc1ccc(C(=O)N/N=C/c2ccc(Cl)c(Cl)c2O)cc1 [Example 355] | 254 to 256 |
| O=C(N/N=C/c1ccc(Cl)c(Cl)c1O)c1cccc(F)c1 [Example 356] | 215 to 218 |
| O=C(N/N=C/c1ccc(Cl)c(Cl)c1O)c1ccc(F)cc1 [Example 357] | 244 to 246 |
| O=C(N/N=C/c1ccc(Cl)c(Cl)c1O)c1cccc(Cl)c1 [Example 358] | 219 to 222 |
| O=C(N/N=C/c1ccc(Cl)c(Cl)c1O)c1cccc([N+](=O)[O-])c1 [Example 360] | 269 to 271 |
| O=C(N/N=C/c1ccc(Cl)c(Cl)c1O)c1ccc([N+](=O)[O-])cc1 [Example 361] | 237 to 243 |

tested on: Phytophthora infestans; experiment: not given; assay type: in vivo, Phytophthora infestans on tomato; conditions: hydrazone 50 ppm with 50 μM CuCl2.2H2O, applied 24 h before inoculation; assessed 7 days after inoculation; tomato late blight

| SMILES | TLB % Control [%] |
| --- | --- |
| Cc1ccc(C(=O)N/N=C/c2cc(C(F)(F)F)cc(C(F)(F)F)c2O)c(O)c1 [Example 342] | 86.0 |
| Cc1cccc(C(=O)N/N=C/c2cccc(C(F)(F)F)c2O)c1 [Example 343] | 97.0 |
| Cc1ccc(C(=O)N/N=C/c2cccc(C(F)(F)F)c2O)cc1 [Example 344] | 100.0 |
| O=C(N/N=C/c1cccc(C(F)(F)F)c1O)c1cccc(F)c1 [Example 345] | 97.0 |
| O=C(N/N=C/c1cccc(C(F)(F)F)c1O)c1ccc(F)cc1 [Example 346] | 96.0 |
| O=C(N/N=C/c1cccc(C(F)(F)F)c1O)c1cccc(Cl)c1 [Example 347] | 97.0 |
| O=C(N/N=C/c1cccc(C(F)(F)F)c1O)c1cccc([N+](=O)[O-])c1 [Example 349] | 97.0 |
| O=C(N/N=C/c1cccc(C(F)(F)F)c1O)c1ccc([N+](=O)[O-])cc1 [Example 350] | 97.0 |
| Cc1ccc(C(=O)N/N=C/c2cccc(C(F)(F)F)c2O)c(O)c1 [Example 352] | 100.0 |
| O=C(N/N=C/c1cccc(C(F)(F)F)c1O)c1ccccc1C(F)(F)F [Example 353] | 81.0 |
| Cc1cccc(C(=O)N/N=C/c2ccc(Cl)c(Cl)c2O)c1 [Example 354] | 98.0 |
| Cc1ccc(C(=O)N/N=C/c2ccc(Cl)c(Cl)c2O)cc1 [Example 355] | 87.0 |
| O=C(N/N=C/c1ccc(Cl)c(Cl)c1O)c1cccc(F)c1 [Example 356] | 93.0 |
| O=C(N/N=C/c1ccc(Cl)c(Cl)c1O)c1ccc(F)cc1 [Example 357] | 93.0 |
| O=C(N/N=C/c1ccc(Cl)c(Cl)c1O)c1cccc(Cl)c1 [Example 358] | 100.0 |
| O=C(N/N=C/c1ccc(Cl)c(Cl)c1O)c1cccc([N+](=O)[O-])c1 [Example 360] | 97.0 |
| O=C(N/N=C/c1ccc(Cl)c(Cl)c1O)c1ccc([N+](=O)[O-])cc1 [Example 361] | 97.0 |
